Read-outs that look alike come from different tables or passages of the source.
Key:
HCoV-229E Mpro = HCoV-229E Mpro (Human coronavirus 229E, UniProt P0C6X1); assay: HCoV-229E Mpro enzymatic inhibition assay (fluorescence); type: biochemical
HCoV-OC43 Mpro = HCoV-OC43 Mpro (Human coronavirus OC43, UniProt P0C6X6); assay: HCoV-OC43 Mpro enzymatic inhibition assay (fluorescence); type: biochemical
Outline: (§1)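 Recombinant Mpro from E. coli was pre-incubated with compound (3-fold, 10-point dilutions, duplicates) for 30 min at room temperature, then fluorogenic peptide substrate was added and fluorescence read at Ex/Em 340/490 nm after 60 min at 30 °C. IC50 came from four-parameter fits of background-corrected inhibition.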

HCoV-NL63 Mpro = HCoV-NL63 Mpro (Human coronavirus NL63, UniProt P0C6X5); assay: HCoV-NL63 Mpro enzymatic inhibition assay (fluorescence); type: biochemical
Outline: as §1

SARS-CoV-1 Mpro = SARS-CoV-1 Mpro (Severe acute respiratory syndrome coronavirus, UniProt P0C6X7); assay: biochemical
SARS-CoV-2 Mpro = SARS-CoV-2 Mpro (Severe acute respiratory syndrome coronavirus 2, UniProt P0DTD1); assay: SARS-CoV-2 Mpro enzymatic inhibition assay (fluorescence); type: biochemical
Outline: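 Recombinant Mpro expressed in E. coli was preincubated 30 min at room temperature with 10-point, 3-fold serially diluted compound in duplicate. Fluorogenic substrate was then added and incubated 60 min at 30° C, and fluorescence read at Ex/Em 340/490 nm. IC50 came from a four-parameter fit of % inhibition.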

MERS Mpro = MERS Mpro (Middle East respiratory syndrome-related coronavirus, UniProt K9N7C7); assay: biochemical; set-up: species or system MERS-CoV
HCoV-HKU1 Mpro = HCoV-HKU1 Mpro (Human coronavirus HKU1, UniProt P0C6X2); assay: HCoV-HKU1 Mpro enzymatic inhibition assay (fluorescence); type: biochemical
Outline: as §1

Sequence of HCoV-OC43 Mpro (P0C6X6 3247-3549 limits assumed): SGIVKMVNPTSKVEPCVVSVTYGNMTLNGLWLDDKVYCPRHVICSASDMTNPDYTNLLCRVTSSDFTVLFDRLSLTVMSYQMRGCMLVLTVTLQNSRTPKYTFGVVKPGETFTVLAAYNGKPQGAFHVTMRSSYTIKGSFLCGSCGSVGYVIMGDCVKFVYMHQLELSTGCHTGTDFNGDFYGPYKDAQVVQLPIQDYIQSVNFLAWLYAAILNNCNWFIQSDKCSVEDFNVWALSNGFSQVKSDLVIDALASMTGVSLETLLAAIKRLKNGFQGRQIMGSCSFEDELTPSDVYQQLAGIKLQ
Sequence of MERS Mpro (K9N7C7 3248-3553 limits assumed): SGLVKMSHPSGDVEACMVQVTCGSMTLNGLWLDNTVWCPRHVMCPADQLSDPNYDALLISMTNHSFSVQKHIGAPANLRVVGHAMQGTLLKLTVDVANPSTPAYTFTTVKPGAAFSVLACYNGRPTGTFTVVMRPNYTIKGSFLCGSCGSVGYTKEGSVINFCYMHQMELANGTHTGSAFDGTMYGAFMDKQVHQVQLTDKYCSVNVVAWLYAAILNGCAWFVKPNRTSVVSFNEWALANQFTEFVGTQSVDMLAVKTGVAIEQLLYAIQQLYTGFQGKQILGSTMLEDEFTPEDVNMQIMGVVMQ
Sequence of HCoV-HKU1 Mpro (P0C6X2 3335-3637 limits assumed): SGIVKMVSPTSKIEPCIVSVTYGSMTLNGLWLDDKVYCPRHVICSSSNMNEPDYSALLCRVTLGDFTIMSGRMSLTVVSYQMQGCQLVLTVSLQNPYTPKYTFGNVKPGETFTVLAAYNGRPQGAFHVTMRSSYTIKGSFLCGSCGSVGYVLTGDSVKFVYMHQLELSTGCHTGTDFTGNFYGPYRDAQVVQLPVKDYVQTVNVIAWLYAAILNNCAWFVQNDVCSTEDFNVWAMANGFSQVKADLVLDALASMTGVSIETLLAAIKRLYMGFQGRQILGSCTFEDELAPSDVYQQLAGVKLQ
Sequence of HCoV-NL63 Mpro (P0C6X5 2940-3242 limits assumed): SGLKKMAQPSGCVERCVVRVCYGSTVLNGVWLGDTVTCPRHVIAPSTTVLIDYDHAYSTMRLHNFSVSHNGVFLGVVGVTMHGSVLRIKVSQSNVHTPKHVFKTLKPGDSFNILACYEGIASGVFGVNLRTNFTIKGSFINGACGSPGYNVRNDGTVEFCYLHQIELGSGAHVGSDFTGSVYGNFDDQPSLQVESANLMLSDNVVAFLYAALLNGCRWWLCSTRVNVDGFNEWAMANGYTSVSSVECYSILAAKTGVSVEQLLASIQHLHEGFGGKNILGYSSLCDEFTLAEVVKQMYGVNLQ
Sequence of HCoV-229E Mpro (P0C6X1 2966-3267 limits assumed): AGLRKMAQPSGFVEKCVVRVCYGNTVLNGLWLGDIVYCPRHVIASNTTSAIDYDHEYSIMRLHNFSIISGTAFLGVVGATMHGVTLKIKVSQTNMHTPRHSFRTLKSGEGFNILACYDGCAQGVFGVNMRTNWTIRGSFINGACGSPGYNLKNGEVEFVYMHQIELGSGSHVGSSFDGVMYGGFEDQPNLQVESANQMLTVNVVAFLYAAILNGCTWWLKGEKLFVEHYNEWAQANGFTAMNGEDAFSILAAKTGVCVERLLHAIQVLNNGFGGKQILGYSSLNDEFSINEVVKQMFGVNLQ

Row | SMILES | IC50 (HCoV-229E Mpro) [nM] | IC50 (HCoV-OC43 Mpro) [nM] | IC50 (HCoV-NL63 Mpro) [nM] | IC50 (SARS-CoV-1 Mpro) [nM] | IC50 (SARS-CoV-2 Mpro; mean, 25 nM protein, 25 μM substrate, 30 min pre-incubation, 60 min at 30° C., read-out: Mpro_SARS-CoV-2 mean IC50) [nM] | IC50 (MERS Mpro) [nM] | IC50 (HCoV-HKU1 Mpro) [nM] | IC50 (SARS-CoV-2 Mpro) [nM]
1 | CC1(C)[C@@H]2[C@@H](C(=O)N[C@H](C=O)C[C@@H]3CCNC3=O)N(C(=O)C3(O)CCCCC3)C[C@@H]21 [Compound 94, (1R,2S,5S)-3-(1-Hydroxycyclohexanecarbonyl)-6,6-dimethyl-N—((S)-1-oxo-3-((S)-2-oxopyrrolidin-3-yl)propan-2-yl)-3-azabicyclo[3.1.0]hexane-2-carboxamide] | 69.9 | 231 | 344 | 115 | 45.1 | 568 | 180 | –
2 | CC1(C)[C@@H]2[C@@H](C(=O)N[C@H](C=O)C[C@@H]3CCNC3=O)N(C(=O)c3cc4cc(S(C)(=O)=O)ccc4[nH]3)C[C@@H]21 [Compound 80, (1R,2S,5S)-6,6-Dimethyl-3-(5-(methylsulfonyl)-1H-indole-2-carbonyl)-N—((S)-1-oxo-3-((S)-2-oxopyrrolidin-3-yl)propan-2-yl)-3-azabicyclo[3.1.0]hexane-2-carboxamide] | 28.6 | 63.3 | 48.2 | 75.5 | – | 384 | 22.5 | 35
3 | CC1(C)[C@@H]2[C@@H](C(=O)N[C@H](C=O)C[C@@H]3CCNC3=O)N(C(=O)c3cc4cccc(C#N)c4[nH]3)C[C@@H]21 [Compound 32, (1R,2S,5S)-3-(7-cyano-1H-indole-2-carbonyl)-6,6-dimethyl-N—((S)-1-oxo-3-((S)-2-oxopyrrolidin-3-yl)propan-2-yl)-3-azabicyclo[3.1.0]hexane-2-carboxamide] | 35.4 | 52.4 | 59.6 | 36.3 | – | 177 | 21.8 | 19.7
